Laboratory results reported in patent US10149839B2, “Chemical compounds” (AstraZeneca AB, priority 2016, dated 2018).
pIC50: −log10 of the molar value. Converted amounts (≈) assume the structure as drawn.

Columns and labels:
[1] = target: estrogen receptor (ERα) in CAMA-1 cells (Homo sapiens (Human), UniProt P03372); experiment: Western blotting assay, CAMA-1 cells; format: cell-based; conditions: compound 100 nM, 48 h, normalised to 100 nM fulvestrant (100%)
[2] = target: T1, Estrogen Receptor (ERα) in MCF-7 cells (Homo sapiens (Human), UniProt P03372); experiment: Western blotting assay, MCF-7 cells; format: cell-based; conditions: compound 100 nM, 48 h, normalised to 100 nM fulvestrant (100%)
[3] = Thermodynamic solubility (shake flask); format: physicochemical; conditions: aqueous phosphate buffer, 25 °C, pH 7.4, aqueous buffer, thermodynamic from solid, aqueous phosphate buffer pH 7.4, 24 hours
[4] = Human plasma protein binding (equilibrium dialysis); format: in vitro ADME; conditions: dialysis 18 hours
physchem = conditions: 1-octanol/aqueous buffer, pH 7.4
[5] = target: T1, Estrogen Receptor (ERα) in MCF-7 cells; experiment: MCF-7 ER down-regulation assay (immuno-fluorescence); format: cell-based; conditions: for pIC50: 18-22 hours incubation

T1 sequence (P03372 whole entry): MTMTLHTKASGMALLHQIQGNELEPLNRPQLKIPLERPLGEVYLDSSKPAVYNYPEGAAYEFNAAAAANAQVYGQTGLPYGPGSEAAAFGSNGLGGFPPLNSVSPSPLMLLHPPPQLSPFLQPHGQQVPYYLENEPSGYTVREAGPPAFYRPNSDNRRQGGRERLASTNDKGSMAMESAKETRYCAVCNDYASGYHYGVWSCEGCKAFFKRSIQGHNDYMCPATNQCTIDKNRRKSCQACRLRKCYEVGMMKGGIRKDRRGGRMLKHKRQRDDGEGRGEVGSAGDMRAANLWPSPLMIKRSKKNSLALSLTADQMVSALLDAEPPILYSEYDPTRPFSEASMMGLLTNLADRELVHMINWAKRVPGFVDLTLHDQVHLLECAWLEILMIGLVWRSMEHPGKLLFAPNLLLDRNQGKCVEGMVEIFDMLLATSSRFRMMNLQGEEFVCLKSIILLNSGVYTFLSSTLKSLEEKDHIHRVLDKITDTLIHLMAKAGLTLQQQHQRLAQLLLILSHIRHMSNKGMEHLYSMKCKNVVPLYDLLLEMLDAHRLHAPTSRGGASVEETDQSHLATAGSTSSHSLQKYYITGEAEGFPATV
estrogen receptor (ERα) in CAMA-1 cells, sequence (P03372 whole entry): as above

SMILES | CAMA1 Western % ER deg vs Fv [1] | MCF7 Western % ER deg vs Fv [2] | solubility at 24 h [3] | Human plasma protein binding (% free) [4] | logD (physchem) | pIC50 [5] | % downregulation ([5]; shown in brackets where not >90%)
C[C@@H]1Cc2c([nH]c3ccccc23)[C@@H](c2c(F)cc(OCCNCCC(F)F)cc2F)N1CC(C)(C)F [Example 3, N-(2-(3,5-difluoro-4-((1R,3R)-2-(2-fluoro-2-methylpropyl)-3-methyl-2,3,4,9-tetrahydro-1H-pyrido[3,4-b]indol-1-yl)phenoxy)ethyl)-3,3-difluoropropan-1-amine] | 0% | 64% | 4 µM (≈ 2.04 µg/mL) | <2.6 % free | > 4.3 | 9.85 | –
COc1cc(OCCNCCCF)ncc1[C@@H]1c2[nH]c3ccccc3c2C[C@@H](C)N1CC1(F)COC1 [Example 7, 3-fluoro-N-(2-((5-((1R,3R)-2-((3-fluorooxetan-3-yl)methyl)-3-methyl-2,3,4,9-tetrahydro-1H-pyrido[3,4-b]indol-1-yl)-4-methoxypyridin-2-yl)oxy)ethyl)propan-1-amine] | 48% | 74% | > 1000 µM | 17 % free | 2.3 | 9.29 | –
COc1cc(OCCNCCCF)ccc1[C@@H]1c2[nH]c3ccccc3c2C[C@@H](C)N1CC1(F)COC1 [Example 8, 3-fluoro-N-(2-(4-((1R,3R)-2-((3-fluorooxetan-3-yl)methyl)-3-methyl-2,3,4,9-tetrahydro-1H-pyrido[3,4-b]indol-1-yl)-3-methoxyphenoxy)ethyl)propan-1-amine] | 38% | 77% | – | – | – | – | –
C[C@@H]1Cc2c([nH]c3ccccc23)[C@@H](c2c(F)cc(NCCNCCCF)cc2F)N1CC1(F)CC1 [Example 9, N^1-(3,5-difluoro-4-((1R,3R)-2-((1-fluorocyclopropyl)methyl)-3-methyl-2,3,4,9-tetrahydro-1H-pyrido[3,4-b]indol-1-yl)phenyl)-N^2-(3-fluoropropyl)ethane-1,2-diamine] | 80% | 82% | – | – | – | 9.66 | –
COc1cc(OCCNCCCF)ccc1[C@@H]1c2[nH]c3ccccc3c2C[C@@H](C)N1CC1(F)CC1 [Example 11, 3-fluoro-N-(2-(4-((1R,3R)-2-((1-fluorocyclopropyl)methyl)-3-methyl-2,3,4,9-tetrahydro-1H-pyrido[3,4-b]indol-1-yl)-3-methoxyphenoxy)ethyl)propan-1-amine] | 54% | 81% | – | – | – | 9.34 | –
COCC(F)(F)CN1[C@H](c2c(F)cc(OCCNCCCF)cc2F)c2[nH]c3ccccc3c2C[C@H]1C [Example 14, N-(2-(4-((1R,3R)-2-(2,2-difluoro-3-methoxypropyl)-3-methyl-2,3,4,9-tetrahydro-1H-pyrido[3,4-b]indol-1-yl)-3,5-difluorophenoxy)ethyl)-3-fluoropropan-1-amine] | 31% | 61% | 10 µM (≈ 5.26 µg/mL) | 0.9 % free | 3.6 | 9.19 | (89%)
COc1cc(OCCNCCCF)cnc1[C@@H]1c2[nH]c3ccccc3c2C[C@@H](C)N1CC(C)(C)F [Example 35, 3-fluoro-N-(2-((6-((1S,3R)-2-(2-fluoro-2-methylpropyl)-3-methyl-2,3,4,9-tetrahydro-1H-pyrido[3,4-b]indol-1-yl)-5-methoxypyridin-3-yl)oxy)ethyl)propan-1-amine] | 82% | 81% | 99 µM (≈ 48.2 µg/mL) | 2.2 % free | 3.8 | 9.55 | –
COc1cc(OCCNCCCF)ncc1[C@@H]1c2[nH]c3ccccc3c2C[C@@H](C)N1CC(C)(C)F [Example 36, 3-fluoro-N-(2-((5-((1R,3R)-2-(2-fluoro-2-methylpropyl)-3-methyl-2,3,4,9-tetrahydro-1H-pyrido[3,4-b]indol-1-yl)-4-methoxypyridin-2-yl)oxy)ethyl)propan-1-amine] | 66% | 83% | 291 µM (≈ 142 µg/mL) | 2.1 % free | 3.5 | 9.85 | –
C[C@@H]1Cc2c([nH]c3ccccc23)[C@@H](c2cnc(OCCNCCCF)cn2)N1CC(C)(C)F [Example 38, 3-fluoro-N-(2-((5-((1S,3R)-2-(2-fluoro-2-methylpropyl)-3-methyl-2,3,4,9-tetrahydro-1H-pyrido[3,4-b]indol-1-yl)pyrazin-2-yl)oxy)ethyl)propan-1-amine] | 75% | 88% | 227 µM (≈ 104 µg/mL) | 1.3 % free | 3.3 | 9.37 | –
COc1cc(OCCNCCCF)ncc1[C@@H]1c2[nH]c3ccccc3c2C[C@@H](C)N1CC(F)(F)F [Example 41, 3-Fluoro-N-(2-((4-methoxy-5-((1R,3R)-3-methyl-2-(2,2,2-trifluoroethyl)-2,3,4,9-tetrahydro-1H-pyrido[3,4-b]indol-1-yl)pyridin-2-yl)oxy)ethyl)propan-1-amine] | 89% | 74% | 389 µM (≈ 192 µg/mL) | 2.4 % free | 3.2 | 9.85 | –
C[C@@H]1Cc2c([nH]c3ccccc23)[C@@H](c2ccc(OCCNCCCF)cc2F)N1CC(F)F [Example 48, N-(2-(4-((1R,3R)-2-(2,2-difluoroethyl)-3-methyl-2,3,4,9-tetrahydro-1H-pyrido[3,4-b]indol-1-yl)-3-fluorophenoxy)ethyl)-3-fluoropropan-1-amine] | 65% | 58% | 94 µM (≈ 43.6 µg/mL) | – | 3.4 | 9.59 | –
C[C@@H]1Cc2c([nH]c3ccccc23)[C@@H](c2c(F)cc(N(C)CCNCCCF)cc2F)N1CC(F)F [Example 49, N1-(4-((1R,3R)-2-(2,2-difluoroethyl)-3-methyl-2,3,4,9-tetrahydro-1H-pyrido[3,4-b]indol-1-yl)-3,5-difluorophenyl)-N2-(3-fluoropropyl)-N1-methylethane-1,2-diamine] | 95% | 100% | 70 µM (≈ 34.6 µg/mL) | 0.40 % free | – | 9.60 | –
C[C@@H]1Cc2c([nH]c3ccccc23)[C@@H](c2c(F)cc(NCCNCCCF)cc2F)N1CC(F)F [Example 54, N1-(4-((1R,3R)-2-(2,2-difluoroethyl)-3-methyl-2,3,4,9-tetrahydro-1H-pyrido[3,4-b]indol-1-yl)-3,5-difluorophenyl)-N2-(3-fluoropropyl)ethane-1,2-diamine] | 92% | 87% | 242 µM (≈ 116 µg/mL) | 1.3 % free | – | 9.89 | –
C[C@@H]1Cc2c([nH]c3ccccc23)[C@@H](c2ccc(OCCNCCCF)cc2)N1CC(F)F [Example 56, N-(2-(4-((1R,3R)-2-(2,2-difluoroethyl)-3-methyl-2,3,4,9-tetrahydro-1H-pyrido[3,4-b]indol-1-yl)phenoxy)ethyl)-3-fluoropropan-1-amine] | 66% | 74% | 184 µM (≈ 82 µg/mL) | – | 3.3 | 9.40 | –
